Laboratory results from US10952436B2, “Microbiocidal quinoline (thio)carboxamide derivatives” (SYNGENTA PARTICIPATIONS AG, priority 2017, dated 2021).

Experiments:
[1] = system: Botryotinia fuckeliana (Botrytis cinerea); experiment: Botryotinia fuckeliana (Botrytis cinerea)/Liquid Culture (Gray Mould); format: cell-based; conditions: 200 ppm, liquid culture, compared to untreated control, 3-4 days after application, read-out: control of Botryotinia fuckeliana
Fusarium culmorum [2] = experiment: microbe, parasite or virus in culture; format: cell-based; conditions: read-out: control of Fusarium culmorum
[3] = system: Magnaporthe grisea (Pyricularia oryzae); experiment: microbe, parasite or virus in culture; format: cell-based; conditions: read-out: control of Magnaporthe grisea
[4] = system: Monographella nivalis (Microdochium nivale); experiment: Monographella nivalis (Microdochium nivale)/Liquid Culture (Foot Rot Cereals); format: cell-based; conditions: 200 ppm, liquid culture, compared to untreated control, 4-5 days after application, read-out: control of Monographella nivalis
Fusarium culmorum [5] = experiment: whole plant or invertebrate; format: in vivo; conditions: in Triticum aestivum, read-out: control of Fusarium culmorum
Sclerotinia sclerotiorum = experiment: Sclerotinia sclerotiorum/Liquid Culture (Cottony Rot); conditions: read-out: control of Sclerotinia sclerotiorum
Experimental: Mycelia fragments of a newly grown liquid culture of the fungus are directly mixed into nutrient broth (Vogels broth). After placing a (DMSO) solution of test compound into a microtiter plate (96-well format) the nutrient broth containing the fungal material is added. The test plates are incubated at 24° C. and the inhibition of growth is determined photometrically 3-4 days after application.

[6] = system: Glomerella lagenarium (Colletotrichum lagenarium); experiment: Glomerella lagenarium (Colletotrichum lagenarium)/Liquid Culture (Anthracnose); format: cell-based; conditions: Colletotrichum orbiculare; 200 ppm; liquid culture, compared to untreated control, 3-4 days after application; read-out: control of Glomerella lagenarium

Row | Structure (SMILES) | inhibition of growth at 200 ppm [1] | inhibition of growth at 200 ppm (Fusarium culmorum [2]) | inhibition of growth at 200 ppm [3] | inhibition of growth at 200 ppm [4] | pest or weed control at 200 ppm (Fusarium culmorum [5]) | inhibition of growth at 20 ppm (Sclerotinia sclerotiorum) | melting point | inhibition of growth at 200 ppm [6]
1 | CC(Cc1ccccc1)(CC(F)(F)F)C(=O)Nc1cnc2c(Cl)cccc2c1 (centres unmarked) [Compound E-51, 2-benzyl-N-(8-chloro-3-quinolyl)-4,4,4-trifluoro-2-methyl-butanamide] | ≥ 80% | ≥ 80% | ≥ 80% | ≥ 80% | ≥ 80% | ≥ 80% | 104 to 106 °C | ≥ 80%
2 | Cc1c(NC(=O)C(C)(Cc2ccccc2)CC(F)(F)F)cnc2c(Cl)cccc12 (centres unmarked) [Compound E-15, 2-benzyl-N-(8-chloro-4-methyl-3-quinolyl)-4,4,4-trifluoro-2-methyl-butanamide] | ≥ 80% | ≥ 80% | ≥ 80% | ≥ 80% | – | ≥ 80% | 73 to 75 °C | ≥ 80%
3 | Cc1nc2c(F)cccc2cc1NC(=O)C(C)(Cc1ccccc1)CC(F)(F)F (centres unmarked) [Compound E-47, 2-benzyl-4,4,4-trifluoro-N-(8-fluoro-2-methyl-3-quinolyl)-2-methyl-butanamide] | ≥ 80% | ≥ 80% | ≥ 80% | – | ≥ 80% | ≥ 80% | 130 to 132 °C | ≥ 80%
4 | Cc1nc2c(F)cccc2cc1NC(=O)C(C)(Cc1ccc(F)cc1)CC(F)(F)F (centres unmarked) [Compound E-16, 4,4,4-trifluoro-N-(8-fluoro-2-methyl-3-quinolyl)-2-[(4-fluorophenyl)methyl]-2-methyl-butanamide] | ≥ 80% | ≥ 80% | ≥ 80% | – | – | ≥ 80% | – | ≥ 80%
5 | C=C(C)CC(C)(Cc1cccc(F)c1)C(=O)Nc1cc2cccc(F)c2nc1C (centres unmarked) [Compound E-12, N-(8-fluoro-2-methyl-3-quinolyl)-2-[(3-fluorophenyl)methyl]-2,4-dimethyl-pent-4-enamide] | ≥ 80% | ≥ 80% | ≥ 80% | ≥ 80% | – | ≥ 80% | 124 to 126 °C | ≥ 80%
6 | CC1(C[C@@](C)(Cc2ccccc2)C(=O)Nc2cnc3c(F)cccc3c2)CC1 [Compound F-10, (2S)-2-benzyl-N-(8-fluoro-3-quinolyl)-2-methyl-3-(1-methylcyclopropyl) propanamide] | ≥ 80% | ≥ 80% | ≥ 80% | ≥ 80% | – | ≥ 80% | 58 to 60 °C | ≥ 80%
7 | Cc1nc2c(F)cccc2cc1NC(=O)[C@@](C)(Cc1ccccc1)CC(C)C [Compound F-8, (2R)-2-benzyl-N-(8-fluoro-2-methyl-3-quinolyl)-2,4-dimethyl-pentanamide] | ≥ 80% | ≥ 80% | ≥ 80% | ≥ 80% | ≥ 80% | ≥ 80% | – | ≥ 80%
8 | C/C=C\CC(C)(Cc1ccccc1)C(=O)Nc1cnc2c(F)cccc2c1 (centres unmarked) [Compound E-28, (Z)-2-benzyl-N-(8-fluoro-3-quinolyl)-2-methyl-hex-4-enamide] | ≥ 80% | ≥ 80% | ≥ 80% | ≥ 80% | ≥ 80% | – | 128 to 130 °C | ≥ 80%
9 | C[C@](Cc1ccccc1)(CC(F)(F)F)C(=O)Nc1cnc2c(F)cccc2c1 (single isomer, unassigned) [Compound F-23] | ≥ 80% | ≥ 80% | ≥ 80% | ≥ 80% | ≥ 80% | ≥ 80% | – | ≥ 80%
10 | CC(Cc1cccc(F)c1)(CC(F)(F)F)C(=O)Nc1cnc2c(F)cccc2c1 (centres unmarked) [Compound E-22, 4,4,4-trifluoro-2-[(3-fluorophenyl)methyl]-N-(8-fluoro-3-quinolyl)-2-methyl-butanamide] | ≥ 80% | ≥ 80% | ≥ 80% | ≥ 80% | – | ≥ 80% | – | ≥ 80%
11 | Cc1c(NC(=O)C(C)(Cc2ccccc2)CC(C)C)cnc2c(Cl)cccc12 (centres unmarked) [Compound E-14, 2-benzyl-N-(8-chloro-4-methyl-3-quinolyl)-2,4-dimethyl-pentanamide] | ≥ 80% | ≥ 80% | ≥ 80% | – | – | ≥ 80% | 124 to 126 °C | ≥ 80%
12 | CC(Cc1ccccc1)(CC(F)(F)Cl)C(=O)Nc1cnc2c(F)cccc2c1 (centres unmarked) [Compound E-56, 2-benzyl-4-chloro-4,4-difluoro-N-(8-fluoro-3-quinolyl)-2-methyl-butanamide] | ≥ 80% | ≥ 80% | ≥ 80% | ≥ 80% | ≥ 80% | ≥ 80% | – | ≥ 80%
13 | CC(Cc1ccccc1)(CC(F)(F)F)C(=O)Nc1cnc2ccccc2c1 (centres unmarked) [Compound E-81, 2-benzyl-4,4,4-trifluoro-2-methyl-N-(3-quinolyl)butanamide] | ≥ 80% | ≥ 80% | ≥ 80% | – | ≥ 80% | ≥ 80% | – | ≥ 80%
14 | Cc1c(NC(=O)[C@](C)(Cc2ccccc2)CC(C)C)cnc2c(F)cccc12 [Compound F-3, (2S)-2-benzyl-N-(8-fluoro-4-methyl-3-quinolyl)-2,4-dimethyl-pentanamide] | ≥ 80% | ≥ 80% | ≥ 80% | ≥ 80% | – | ≥ 80% | – | ≥ 80%
15 | COC(C)(Cc1ccccc1)C(=O)Nc1cnc2c(F)cccc2c1 (centres unmarked) [Compound E-43, N-(8-fluoro-3-quinolyl)-2-methoxy-2-methyl-3-phenyl-propanamide] | ≥ 80% | ≥ 80% | ≥ 80% | ≥ 80% | ≥ 80% | – | 107 to 109 °C | ≥ 80%
16 | CC(Cc1ccccc1)(CC1(F)CC1)C(=O)Nc1cnc2c(F)cccc2c1 (centres unmarked) [Compound E-25, 2-benzyl-3-(1-fluorocyclopropyl)-N-(8-fluoro-3-quinolyl)-2-methyl-propanamide] | ≥ 80% | ≥ 80% | ≥ 80% | – | ≥ 80% | ≥ 80% | 162 to 164 °C | ≥ 80%
17 | C=C(C)CC(C)(Cc1cccc(F)c1)C(=O)Nc1cnc2c(F)cccc2c1 (centres unmarked) [Compound E-11, 2-[(3-fluorophenyl)methyl]-N-(8-fluoro-3-quinolyl)-2,4-dimethyl-pent-4-enamide] | ≥ 80% | ≥ 80% | ≥ 80% | ≥ 80% | – | ≥ 80% | 125 to 127 °C | ≥ 80%
18 | Cc1nc2c(F)cccc2cc1NC(=O)[C@](C)(Cc1ccccc1)CC(C)C [Compound F-7, (2S)-2-benzyl-N-(8-fluoro-2-methyl-3-quinolyl)-2,4-dimethyl-pentanamide] | ≥ 80% | ≥ 80% | ≥ 80% | ≥ 80% | ≥ 80% | ≥ 80% | – | ≥ 80%
19 | Cc1cccc2cc(NC(=O)C(C)(Cc3ccccc3)CC(F)(F)F)cnc12 (centres unmarked) [Compound E-59, 2-benzyl-4,4,4-trifluoro-2-methyl-N-(8-methyl-3-quinolyl)butanamide] | ≥ 80% | ≥ 80% | ≥ 80% | ≥ 80% | ≥ 80% | – | 123 to 125 °C | ≥ 80%
20 | C=C(C)C[C@@](C)(Cc1ccccc1)C(=O)Nc1cnc2c(F)cccc2c1C [Compound F-5, (2S)-2-benzyl-N-(8-fluoro-4-methyl-3-quinolyl)-2,4-dimethyl-pent-4-enamide] | ≥ 80% | ≥ 80% | ≥ 80% | ≥ 80% | – | ≥ 80% | – | ≥ 80%
21 | C[C@](Cc1ccccc1)(CC(F)(F)F)C(=O)Nc1cnc2c(F)c(F)ccc2c1 [Compound F-15, (2S)-2-benzyl-N-(7,8-difluoro-3-quinolyl)-4,4,4-trifluoro-2-methyl-butanamide] | ≥ 80% | ≥ 80% | ≥ 80% | ≥ 80% | – | ≥ 80% | – | ≥ 80%
